Experimental data: ChEMBL document CHEMBL5370660, “Design of a Supersoft Topical JAK Inhibitor, Which Is Effective in Human Skin but Rapidly Deactivated in Blood” (J Med Chem, 2023)
Converted amounts (≈) assume the structure as drawn. The source made the active and inactive calls. No cut-off for these calls is given here.

Key:
[1] = test system: Homo sapiens; experiment: (§1) Inhibition of Eotaxin-3 gene expression in IL-4/IL-13-stimulated fresh human skin explant using Franz diffusion cell model at 0.5 % administered topically preincubated overnight followed by fresh media replacement in receiver fluid without compound and subsequently stimulated with IL-4/IL-13 measured after 24 hrs by RT-qPCR analysis; assay type: functional, tissue-based; conditions: Skin of body
[2] = Drug penetration in fresh human skin explant using Franz diffusion cell model assessed as compound concentration in receiver fluid at 0.5 % administered topically preincubated overnight followed by fresh media replacement in receiver fluid without compound and subsequently stimulated with IL-4/IL-13 measured after 24 hrs by LC-MS/MS analysis; assay type: ADME, tissue-based, Skin of body
[3] = Stability of compound in fresh human skin explant using Franz diffusion cell model assessed as compound concentration in dermis at 0.5 % administered topically preincubated overnight followed by fresh media replacement in receiver fluid without compound and subsequently stimulated with IL-4/IL-13 measured after 40 hrs by LC-MS/MS analysis; assay type: ADME, tissue-based, Skin of body; conditions: topical or ocular, read-out: Ct
[4] = test system: Homo sapiens; experiment: as §1, with “TARC” for “Eotaxin-3”; assay type: functional, tissue-based; conditions: Skin of body
[5] = Saturation solubility of compound in PEG400/transcutol/benzyl alcohol/water mixture using crystalline form of sample; assay type: physicochemical
[6] = Stability in human whole blood assessed as half life at 1 uM incubated upto 8 hrs by LC-MS/MS analysis; assay type: ADME, tissue-based
[7] = Metabolic stability in human skin S9 fraction measured upto 120 mins by LC-MS analysis; assay type: ADME, subcellular
[8] = Permeability of compound; assay type: ADME; conditions: not told; read-out: permeability
[9] = Lipophilicity, LogD of compound; assay type: physicochemical; conditions: octanol/water
[10] = test system: Homo sapiens; experiment: as §1, with “MMP12” for “Eotaxin-3”; assay type: functional, tissue-based; conditions: Skin of body
[11] = Thermodynamic solubility of the compound at pH 6.8 using crystalline form of sample; assay type: physicochemical; conditions: read-out: Therm_solubility
[12] = target: T1, C-C motif chemokine 17 (Homo sapiens, UniProt Q92583); experiment: Inhibition of TARC in human skin immersion culture at 10 uM preincubated for 3 hrs followed by IL-4/IL-13 stimulation measured after 18 hrs by MSD assay relative to control; assay type: tissue-based, Skin of body; conditions: time 21 hrs
T1 sequence (Q92583 whole entry): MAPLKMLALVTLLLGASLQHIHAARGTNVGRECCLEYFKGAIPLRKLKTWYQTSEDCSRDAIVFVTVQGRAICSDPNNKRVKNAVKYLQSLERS

[13] = target: JAK2/JAK1 (Homo sapiens, UniProt O60674+P23458); experiment: Inhibition of JAK1/2-mediated STAT1 phosphorylation in human M07E cells preincubated for 30 mins followed by IFN-alpha stimulation measured after 15 mins by flow cytometry; assay type: cell-based
[14] = test system: Homo sapiens; experiment: Downregulation of GSVA score in human abdominal skin model at 0.2 % administered topically as cream treated for 24 hrs followed by removal of cream and stratum corneum and subsequently stimulated with IL-4/IL-13 measured after 3 hrs; assay type: functional, tissue-based; conditions: Abdomen skin, route top, time 27.0 hrs
[15] = target: Tyrosine-protein kinase JAK2 (Homo sapiens, UniProt O60674); experiment: Inhibition of GST-fused JAK2 (808 to 1132 residues)(unknown origin) using Carboxyfluorescein-Ahx-GGEEEEYFELVKKKK peptide as substrate incubated for 30 mins in presence of ATP by caliper microfluidic mobility shift assay
[16] = Saturation solubility of compound in PEG400/transcutol/benzyl alcohol/water mixture using amorphous form of sample; assay type: physicochemical
[17] = target: T2, Tyrosine-protein kinase JAK3 (Homo sapiens, UniProt P52333); experiment: Inhibition of GST-fused JAK3 (811 to 1124 residues)(unknown origin) using Carboxyfluorescein-Ahx-GGEEEEYFELVKKKK peptide as substrate incubated for 30 mins in presence of ATP by caliper microfluidic mobility shift assay
T2 sequence (P52333 whole entry): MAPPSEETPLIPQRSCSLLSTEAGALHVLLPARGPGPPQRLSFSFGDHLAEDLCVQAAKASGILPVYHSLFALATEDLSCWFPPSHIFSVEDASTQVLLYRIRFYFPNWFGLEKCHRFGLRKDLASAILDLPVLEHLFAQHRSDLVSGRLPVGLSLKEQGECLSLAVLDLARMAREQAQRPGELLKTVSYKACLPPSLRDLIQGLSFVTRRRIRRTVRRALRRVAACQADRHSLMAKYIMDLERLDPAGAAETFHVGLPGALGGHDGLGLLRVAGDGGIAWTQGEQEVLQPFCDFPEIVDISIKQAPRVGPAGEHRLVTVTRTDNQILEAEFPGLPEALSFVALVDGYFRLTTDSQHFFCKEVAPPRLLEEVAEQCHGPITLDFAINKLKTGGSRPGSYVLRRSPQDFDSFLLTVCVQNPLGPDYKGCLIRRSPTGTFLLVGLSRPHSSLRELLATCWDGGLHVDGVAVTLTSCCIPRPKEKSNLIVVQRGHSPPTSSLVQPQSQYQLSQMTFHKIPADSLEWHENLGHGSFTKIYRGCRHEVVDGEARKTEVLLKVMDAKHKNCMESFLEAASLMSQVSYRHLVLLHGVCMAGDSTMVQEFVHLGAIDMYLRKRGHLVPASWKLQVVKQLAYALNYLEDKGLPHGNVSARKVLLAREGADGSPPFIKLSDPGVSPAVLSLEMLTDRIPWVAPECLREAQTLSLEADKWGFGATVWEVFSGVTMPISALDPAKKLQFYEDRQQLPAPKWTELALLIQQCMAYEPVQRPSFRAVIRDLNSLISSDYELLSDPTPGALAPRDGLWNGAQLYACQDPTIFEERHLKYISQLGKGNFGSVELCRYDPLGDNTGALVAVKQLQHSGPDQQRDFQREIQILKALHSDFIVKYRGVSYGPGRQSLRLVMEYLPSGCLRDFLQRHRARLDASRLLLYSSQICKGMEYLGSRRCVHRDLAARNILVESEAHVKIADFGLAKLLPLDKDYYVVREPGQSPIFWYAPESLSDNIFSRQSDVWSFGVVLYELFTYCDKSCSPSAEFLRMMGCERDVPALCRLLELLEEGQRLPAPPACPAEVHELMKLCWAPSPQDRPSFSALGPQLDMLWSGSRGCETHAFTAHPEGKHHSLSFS

[18] = target: T3, JAK3/JAK1 (Homo sapiens, UniProt P23458+P52333); experiment: Inhibition of JAK1/3-mediated STAT5 phosphorylation in human M07E cells preincubated for 30 mins followed by IL-15 stimulation measured after 15 mins by flow cytometry; assay type: cell-based
[19] = target: Tyrosine-protein kinase JAK1 (Homo sapiens, UniProt P23458); experiment: Inhibition of GST-fused JAK1 (866 to 1154 residues)(unknown origin) using FITC-Ahr-KKSRGDYMTMQIG-NH2 peptide as substrate incubated for 30 mins in presence of ATP by caliper microfluidic mobility shift assay
[20] = Stability of compound under temperature stress assessed as compound degradation at 50 degreeC measured after 7 days using amorphous form of sample; assay type: physicochemical; conditions: time 7 day; read-out: Drug degradation
[21] = Solubility of the compound at pH 6.8 using amorphous form of sample; assay type: physicochemical; conditions: buffer
[22] = Stability of compound under light stress assessed as compound decomposition under sunlight with intensity of 4000 KJ/m2, irradiation of 250 W/m2, wavelength of >290 nm, temperature of 37 degreeC for 4 hrs using amorphous form of sample; assay type: ADME; conditions: read-out: Drug degradation
[23] = target: T3, JAK3/JAK1; experiment: Inhibition of JAK1/3-mediated STAT5 phosphorylation in human whole blood incubated for 30 mins followed by IL-2 addition measured after 15 mins by flow cytometry; assay type: tissue-based
[24] = target: Non-receptor tyrosine-protein kinase TYK2 (Homo sapiens, UniProt P29597); experiment: Inhibition of GST-fused TYK2 (888 to 1187 residues)(unknown origin) using FITC-Ahr-KKSRGDYMTMQIG-NH2 peptide as substrate incubated for 30 mins in presence of ATP by caliper microfluidic mobility shift assay
[25] = target: T4, Eukaryotic translation initiation factor 2-alpha kinase 3 (Homo sapiens, UniProt Q9NZJ5); experiment: Inhibition of EIF2AK3 (unknown origin)
T4 sequence (Q9NZJ5 whole entry): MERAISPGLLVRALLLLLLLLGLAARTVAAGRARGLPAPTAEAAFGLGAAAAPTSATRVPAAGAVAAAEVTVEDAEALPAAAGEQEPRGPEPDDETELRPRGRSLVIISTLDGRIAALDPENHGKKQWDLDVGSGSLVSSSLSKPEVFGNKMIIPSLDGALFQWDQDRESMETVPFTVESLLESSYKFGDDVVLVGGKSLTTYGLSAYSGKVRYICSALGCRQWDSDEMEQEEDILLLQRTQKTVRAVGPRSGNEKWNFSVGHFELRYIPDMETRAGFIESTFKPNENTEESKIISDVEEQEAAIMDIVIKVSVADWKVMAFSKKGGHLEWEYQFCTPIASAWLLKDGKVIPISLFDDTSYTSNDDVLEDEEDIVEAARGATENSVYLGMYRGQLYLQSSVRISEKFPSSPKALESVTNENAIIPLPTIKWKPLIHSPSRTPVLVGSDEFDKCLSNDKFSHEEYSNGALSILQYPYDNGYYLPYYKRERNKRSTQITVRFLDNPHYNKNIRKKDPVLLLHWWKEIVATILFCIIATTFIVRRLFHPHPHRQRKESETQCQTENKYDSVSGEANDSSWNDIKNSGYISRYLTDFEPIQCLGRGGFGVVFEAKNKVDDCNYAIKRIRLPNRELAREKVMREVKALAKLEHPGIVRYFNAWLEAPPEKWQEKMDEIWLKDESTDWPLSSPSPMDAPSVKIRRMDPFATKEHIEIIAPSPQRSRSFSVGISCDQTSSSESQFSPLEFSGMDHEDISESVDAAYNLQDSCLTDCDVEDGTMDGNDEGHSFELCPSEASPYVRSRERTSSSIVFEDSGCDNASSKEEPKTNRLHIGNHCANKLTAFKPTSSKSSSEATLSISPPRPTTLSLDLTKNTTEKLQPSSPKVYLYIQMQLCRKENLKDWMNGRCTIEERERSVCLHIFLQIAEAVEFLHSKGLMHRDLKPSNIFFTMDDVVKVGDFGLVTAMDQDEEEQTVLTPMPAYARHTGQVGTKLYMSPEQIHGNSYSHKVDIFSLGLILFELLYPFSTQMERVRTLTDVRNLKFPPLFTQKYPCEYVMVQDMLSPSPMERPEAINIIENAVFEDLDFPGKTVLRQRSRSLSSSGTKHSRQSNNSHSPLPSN

[26] = target: T5, Mitogen-activated protein kinase kinase kinase 2 (Homo sapiens, UniProt Q9Y2U5); experiment: Inhibition of MAP3K2 (unknown origin)
T5 sequence (Q9Y2U5 whole entry): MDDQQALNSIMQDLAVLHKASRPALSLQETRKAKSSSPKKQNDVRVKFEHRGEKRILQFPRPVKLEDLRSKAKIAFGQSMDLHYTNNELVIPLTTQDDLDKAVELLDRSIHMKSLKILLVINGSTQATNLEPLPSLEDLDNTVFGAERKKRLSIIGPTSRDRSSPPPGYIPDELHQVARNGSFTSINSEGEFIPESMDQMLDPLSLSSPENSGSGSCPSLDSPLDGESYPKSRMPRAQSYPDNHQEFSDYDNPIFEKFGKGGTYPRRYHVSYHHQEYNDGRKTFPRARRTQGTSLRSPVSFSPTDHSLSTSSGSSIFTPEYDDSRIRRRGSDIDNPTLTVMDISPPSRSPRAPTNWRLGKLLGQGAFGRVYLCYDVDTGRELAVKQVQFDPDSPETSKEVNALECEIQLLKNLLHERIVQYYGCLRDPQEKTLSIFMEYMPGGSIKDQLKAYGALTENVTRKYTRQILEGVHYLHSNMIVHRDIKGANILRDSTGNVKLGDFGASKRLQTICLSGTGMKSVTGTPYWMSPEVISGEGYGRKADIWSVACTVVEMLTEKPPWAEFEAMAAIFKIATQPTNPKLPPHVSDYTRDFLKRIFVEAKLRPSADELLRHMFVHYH

[27] = Half life in human blood; assay type: ADME, tissue-based

JAK2/JAK1, sequence (P23458 whole entry): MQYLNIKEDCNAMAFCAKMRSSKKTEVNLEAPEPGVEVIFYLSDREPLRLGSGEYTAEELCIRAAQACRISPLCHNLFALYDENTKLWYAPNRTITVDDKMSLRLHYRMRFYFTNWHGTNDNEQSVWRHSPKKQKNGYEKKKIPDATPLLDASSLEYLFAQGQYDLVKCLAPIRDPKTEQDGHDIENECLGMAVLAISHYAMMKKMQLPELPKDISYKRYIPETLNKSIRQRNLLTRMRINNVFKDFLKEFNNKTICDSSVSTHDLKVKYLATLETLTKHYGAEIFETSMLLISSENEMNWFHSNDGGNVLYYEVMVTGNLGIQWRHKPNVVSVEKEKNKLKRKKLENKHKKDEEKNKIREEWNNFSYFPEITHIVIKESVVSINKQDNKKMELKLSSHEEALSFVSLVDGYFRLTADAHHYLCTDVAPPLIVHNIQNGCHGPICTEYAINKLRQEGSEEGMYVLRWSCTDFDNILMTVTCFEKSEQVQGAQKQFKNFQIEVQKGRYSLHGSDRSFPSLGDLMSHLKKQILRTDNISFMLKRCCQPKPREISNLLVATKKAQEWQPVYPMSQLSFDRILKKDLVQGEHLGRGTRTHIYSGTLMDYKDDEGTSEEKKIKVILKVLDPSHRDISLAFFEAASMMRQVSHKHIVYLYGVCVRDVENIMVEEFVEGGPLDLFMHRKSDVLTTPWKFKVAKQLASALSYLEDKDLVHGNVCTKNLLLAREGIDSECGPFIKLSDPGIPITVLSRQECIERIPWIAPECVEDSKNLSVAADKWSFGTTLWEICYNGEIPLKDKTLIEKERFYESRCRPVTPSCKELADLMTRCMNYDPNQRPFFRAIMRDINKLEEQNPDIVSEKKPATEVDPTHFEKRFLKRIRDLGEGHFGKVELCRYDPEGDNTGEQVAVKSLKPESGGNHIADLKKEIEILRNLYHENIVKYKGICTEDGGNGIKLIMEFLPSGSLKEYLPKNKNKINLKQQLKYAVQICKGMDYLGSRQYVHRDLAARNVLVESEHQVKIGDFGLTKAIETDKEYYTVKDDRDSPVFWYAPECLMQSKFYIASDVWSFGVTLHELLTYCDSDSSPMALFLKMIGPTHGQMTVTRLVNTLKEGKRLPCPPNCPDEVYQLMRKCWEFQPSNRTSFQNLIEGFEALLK
JAK2/JAK1, sequence (O60674 whole entry): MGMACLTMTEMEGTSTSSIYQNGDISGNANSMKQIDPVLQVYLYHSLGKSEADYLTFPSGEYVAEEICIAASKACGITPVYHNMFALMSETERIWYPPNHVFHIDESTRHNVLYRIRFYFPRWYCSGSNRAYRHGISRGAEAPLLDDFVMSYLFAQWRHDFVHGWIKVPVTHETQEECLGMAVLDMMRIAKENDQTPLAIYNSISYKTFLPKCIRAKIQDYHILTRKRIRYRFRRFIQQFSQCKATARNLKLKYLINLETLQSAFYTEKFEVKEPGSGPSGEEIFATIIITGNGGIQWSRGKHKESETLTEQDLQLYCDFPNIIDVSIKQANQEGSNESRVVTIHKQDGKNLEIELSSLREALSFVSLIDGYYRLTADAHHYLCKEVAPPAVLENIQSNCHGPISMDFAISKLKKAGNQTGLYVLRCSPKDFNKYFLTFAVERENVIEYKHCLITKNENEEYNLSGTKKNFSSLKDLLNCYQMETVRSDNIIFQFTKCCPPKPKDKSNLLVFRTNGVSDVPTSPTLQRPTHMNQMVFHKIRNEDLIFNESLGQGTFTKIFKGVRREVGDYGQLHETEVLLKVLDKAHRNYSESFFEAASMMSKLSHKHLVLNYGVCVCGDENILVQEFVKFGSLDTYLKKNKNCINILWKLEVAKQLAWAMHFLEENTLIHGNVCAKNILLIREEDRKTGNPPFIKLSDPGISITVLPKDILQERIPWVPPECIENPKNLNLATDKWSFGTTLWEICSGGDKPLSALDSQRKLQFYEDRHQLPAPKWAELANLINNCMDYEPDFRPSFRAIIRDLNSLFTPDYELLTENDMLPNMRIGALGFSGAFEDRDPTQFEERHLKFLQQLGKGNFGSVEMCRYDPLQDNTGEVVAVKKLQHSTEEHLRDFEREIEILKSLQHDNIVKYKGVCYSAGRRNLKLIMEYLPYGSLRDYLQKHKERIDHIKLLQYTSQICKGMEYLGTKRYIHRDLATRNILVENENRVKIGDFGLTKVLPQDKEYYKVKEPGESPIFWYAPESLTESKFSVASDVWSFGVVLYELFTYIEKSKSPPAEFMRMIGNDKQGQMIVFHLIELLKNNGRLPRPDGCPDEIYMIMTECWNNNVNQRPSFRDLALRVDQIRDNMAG
Tyrosine-protein kinase JAK2, sequence (O60674 whole entry, the tested form may be a part): as the sequence (O60674 whole entry) above
T3 sequence (P23458 whole entry, one chain of several, the tested form may be a part): as the sequence (P23458 whole entry) above
Tyrosine-protein kinase JAK1, sequence (P23458 whole entry, the tested form may be a part): as the sequence (P23458 whole entry) above
Non-receptor tyrosine-protein kinase TYK2, sequence (P29597 whole entry, the tested form may be a part): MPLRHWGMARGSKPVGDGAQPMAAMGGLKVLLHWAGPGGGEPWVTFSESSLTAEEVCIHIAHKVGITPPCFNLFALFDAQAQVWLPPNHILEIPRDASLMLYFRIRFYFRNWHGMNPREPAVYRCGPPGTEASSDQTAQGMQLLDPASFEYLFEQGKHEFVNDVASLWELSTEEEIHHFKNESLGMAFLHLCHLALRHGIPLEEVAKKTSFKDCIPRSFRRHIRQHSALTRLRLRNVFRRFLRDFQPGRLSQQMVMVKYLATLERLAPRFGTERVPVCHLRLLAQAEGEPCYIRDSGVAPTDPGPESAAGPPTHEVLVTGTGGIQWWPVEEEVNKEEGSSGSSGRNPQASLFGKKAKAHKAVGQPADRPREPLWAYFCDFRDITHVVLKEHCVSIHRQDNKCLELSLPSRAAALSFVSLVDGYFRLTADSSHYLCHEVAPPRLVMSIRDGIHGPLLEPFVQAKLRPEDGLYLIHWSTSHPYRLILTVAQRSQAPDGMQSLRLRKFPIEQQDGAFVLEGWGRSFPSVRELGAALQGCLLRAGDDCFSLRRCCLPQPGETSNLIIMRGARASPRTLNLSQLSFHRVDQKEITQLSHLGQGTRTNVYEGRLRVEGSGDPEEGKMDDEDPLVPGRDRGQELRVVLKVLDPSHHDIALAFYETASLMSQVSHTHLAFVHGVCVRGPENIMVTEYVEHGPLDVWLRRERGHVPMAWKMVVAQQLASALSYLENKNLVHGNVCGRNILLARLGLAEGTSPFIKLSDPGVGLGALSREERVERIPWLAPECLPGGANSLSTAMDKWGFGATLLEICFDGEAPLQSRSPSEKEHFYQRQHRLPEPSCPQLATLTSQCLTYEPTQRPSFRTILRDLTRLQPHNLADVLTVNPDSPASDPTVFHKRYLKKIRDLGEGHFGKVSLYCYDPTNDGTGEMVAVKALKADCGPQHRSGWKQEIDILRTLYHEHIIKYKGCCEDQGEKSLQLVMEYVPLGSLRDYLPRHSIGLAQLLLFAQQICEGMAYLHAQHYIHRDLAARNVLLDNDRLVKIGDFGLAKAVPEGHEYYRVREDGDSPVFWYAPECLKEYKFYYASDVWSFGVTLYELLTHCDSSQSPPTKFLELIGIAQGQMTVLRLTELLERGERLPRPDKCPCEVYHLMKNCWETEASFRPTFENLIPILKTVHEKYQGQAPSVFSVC

SMILES	half-life at 1 µM [6]	half-life [7]	Papp [8]	logD [9]	IC50 [13]	IC50 [15]	IC50 [17]	IC50 [18]	IC50 [19]	IC50 [23]	other results
Cc1cccc(Nc2cc(Nc3ccccc3Cl)c(C(N)=O)cn2)n1	> 240 min	> 240 min	6.7 ×10⁻⁶ cm/s	4.4	85 nM						inhibition [1]: Active; Drug uptake [2]: 0.004 µM; concentration at 40 h, 0.5 % [3]: 33 µM; inhibition [4]: Active; solubility thermodynamic [5]: 2800 µg/mL (≈ 7.91 mM); inhibition [10]: Active; solubility thermodynamic [11]: 0.1 µg/mL (≈ 0.000283 mM); inhibition at 10 µM [12]: 100%; Activity [14]: Active
COC(=O)Cc1ccc(Nc2cc(Nc3ccccc3Cl)c(C(N)=O)cn2)nc1	5 min	12 min		3.8	37 nM	10 nM	13 nM	27 nM	9 nM	7850 nM	solubility thermodynamic [16]: 5400 µg/mL (≈ 13.1 mM); degraded at 168 h [20]: 11%; solubility [21]: 3 µg/mL (≈ 0.00728 mM); degraded at 4 h [22]: 7%
COc1ccccc1Nc1cc(Nc2ccc(CC(=O)O)cn2)ncc1C(N)=O	> 240 min	< 240 min	0.5 ×10⁻⁶ cm/s	0.25	> 10000 nM	11 nM	10 nM	7020 nM	5 nM	> 40000 nM	IC50 [24]: 7 nM; IC50 [25]: < 100 nM; IC50 [26]: < 100 nM
CCOC(=O)Oc1cccc(Nc2cc(Nc3ccccc3Cl)c(C(N)=O)cn2)n1	4 min	7 min			71 nM	5220 nM					half-life [27]: ~4 min
